Active and inactive are the calls of the source. Rule as the data show it, for most assays here: actives have a measured EC50 and inactives only a lower limit.
How the values were obtained:
[1] = Luminescence Cell-Based Dose Retest to Confirm Inhibitors of Cancer Stem Cells. [Related pubchem assays (depositor defined):AID2717, AID2721]; format: functional, Homo sapiens; settings: Homo sapiens
[2] = tested on: Streptococcus sp. 'group A'; test: Streptococcus pyogenes SK(-)GAS viability under kanamycin – luminescence, BacTiterGlo, confirmation, counter-screen for streptokinase expression inhibitor project, dose response (AID 1900); format: functional, organism-based
[3] = biological target: T1, Streptokinase A (Streptococcus pyogenes serotype M1, UniProt P10520); test: viability-normalized secreted streptokinase activity reduction – plasminogen activation absorbance, OD405, dose response (AID 1914); format: functional, Streptococcus pyogenes M1 GAS;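 also: secreted streptokinase activity via plasminogen activation per viability signal from cell pellet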
T1 sequence (P10520 whole entry): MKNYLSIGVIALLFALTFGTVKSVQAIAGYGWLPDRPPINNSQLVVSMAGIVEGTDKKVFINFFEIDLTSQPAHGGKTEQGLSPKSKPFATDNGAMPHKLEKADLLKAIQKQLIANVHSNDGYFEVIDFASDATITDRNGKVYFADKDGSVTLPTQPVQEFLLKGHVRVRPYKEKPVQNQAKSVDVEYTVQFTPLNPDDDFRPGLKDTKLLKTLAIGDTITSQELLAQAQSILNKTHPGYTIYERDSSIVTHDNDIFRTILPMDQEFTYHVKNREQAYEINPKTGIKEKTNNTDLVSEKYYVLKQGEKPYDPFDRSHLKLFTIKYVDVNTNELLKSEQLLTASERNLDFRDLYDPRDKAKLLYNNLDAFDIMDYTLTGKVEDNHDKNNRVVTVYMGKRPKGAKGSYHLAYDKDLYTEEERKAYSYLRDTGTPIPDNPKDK

[4] = tested on: Streptococcus; test: GAS UMAA2166 growth inhibition – luminescence, BacTiterGlo, counter-screen for streptokinase expression inhibitor project, dose response (AID 1915); format: functional, organism-based;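 also: potency for reduction of bacterial viability or growth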
[5] = Trypanosoma cruzi growth suppression in host cells – NIH3T3 host cells, beta-gal luminescence, confirmation (AID 2044); format: functional, cell-based;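 also: intracellular parasites grown in NIH/3T3 mouse fibroblasts as host cells; luminescent beta-galactosidase reporter signal from transgenic T. cruzi replicating inside host cells; inhibitors lower the luminescence signal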
[6] = NIH3T3 cell viability loss – ATP luminescence, mouse fibroblasts, counter-screen, dose response (AID 2010); format: functional, cell-based;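 also: cells exposed to compound for about 90 hours before reading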
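For AC50 in this document: cells exposed to compound for roughly 70 hours or longer before luminescence read.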

Question: For `C=CCn1c(SCCC)nc2sc3c(c2c1=O)CCc1ccccc1-3`, which AC50 [1] is on record?
Answer: 1.1 µM (active)

Question: What does the source list for `CC1CC(NC(=O)c2c(O)n3ccsc3nc2=O)CC(C)(C)C1` (stereo unspecified)?
Answer: EC50 [2]: 11.3 µM (active); EC50 [3]: 14.5 µM (active); EC50 [4]: > 150 µM (not active)

Question: With `FC(F)(F)c1cccc(NC(=S)N(CCCN2CCCC2)Cc2cccn2Cc2ccc(Cl)cc2)c1` as the compound, how does the EC50 [5] read?
Answer: 2.15 µM (active)

Question: What about the EC50 [6] of the same compound?
Answer: > 60 µM (not active)

Question: What about the AC50 [1] of the same compound?
Answer: 3.37 µM (active)

Question: For `COc1cccc(-c2sc3ccc(OC)cc3c2C#CCCO)c1`, which AC50 [1] is on record?
Answer: 2.79 µM (active)

Question: Which EC50 [2] does the source give for `CCc1ccc(NC2=NCC(c3ccccc3)S2)cc1` (stereo unspecified) here?
Answer: 8.39 µM (active)

Question: And the EC50 [3]?
Answer: > 150 µM (not active)

Question: And the EC50 [4]?
Answer: 18.8 µM (active)

Question: With `CCc1ccc(/C=C2/SC(=S)N(CC(=O)Nc3nc4ccccc4s3)C2=O)cc1` as the compound, how does the EC50 [2] read?
Answer: 2.87 µM (active)

Question: What about the EC50 [3] of the same compound?
Answer: > 150 µM (not active)

Question: And the EC50 [4]?
Answer: 35.4 µM (active)

Question: What does the source list for `CCCCn1c(O)c(N=NC(=O)c2ccccc2NS(=O)(=O)c2cccs2)c2ccccc21`?
Answer: EC50 [2]: 21.8 µM (active); EC50 [3]: > 150 µM (not active); EC50 [4]: 68.3 µM (active)

Question: With `O=C(CNCCc1ccc(Cl)cc1)Nc1ccc(C(=O)N2CCCCC2)cc1` as the compound, how does the EC50 [5] read?
Answer: 0.502 µM (active)

Question: And the EC50 [6]?
Answer: > 60 µM (not active)

Question: What does the source list for `CCCCOc1ccc(C(=O)CCN2CCOCC2)cc1`?
Answer: EC50 [5]: 0.836 µM (active); EC50 [6]: > 60 µM (not active)

Question: Which EC50 [5] does the source give for `O=C(CSc1nnnn1-c1ccc(O)cc1)N1N=C(c2ccc3ccccc3c2)CC1c1ccccc1` (stereo unspecified) here?
Answer: 2.08 µM (active)

Question: And the EC50 [6]?
Answer: > 60 µM (not active)

Question: With `COc1cc(OC)cc(C(=O)NC(=S)N2CCCCC2c2cccnc2)c1` (stereo unspecified) as the compound, how does the EC50 [5] read?
Answer: 0.769 µM (active)

Question: What about the EC50 [6] of the same compound?
Answer: > 60 µM (not active)

Question: What does the source list for `O=C1CC(NS(=O)(=O)c2ccc([N+](=O)[O-])cc2)CN1c1cccc(F)c1` (stereo unspecified)?
Answer: EC50 [5]: 1.08 µM (active); EC50 [6]: > 60 µM (not active)

Question: Which EC50 [5] does the source give for `CC(NC(=O)c1cccc(Cn2cc([N+](=O)[O-])cn2)c1)c1ccc(C(C)(C)C)cc1` (stereo unspecified) here?
Answer: 2.59 µM (active)

Question: What about the EC50 [6] of the same compound?
Answer: > 60 µM (not active)

Question: With `CC(C)c1nc(NCc2ccccc2)c(C#N)c2c1CCCC2` as the compound, how does the EC50 [2] read?
Answer: 4.75 µM (active)

Question: What about the EC50 [3] of the same compound?
Answer: 1.96 µM (active)

Question: And the EC50 [4]?
Answer: 12.2 µM (active)

Question: Which EC50 [5] does the source give for `Cc1cc(C)c(S(=O)(=O)c2cc(F)ccc2C)c(Cl)n1` here?
Answer: 1.39 µM (active)

Question: What about the EC50 [6] of the same compound?
Answer: > 60 µM (not active)

Question: Which EC50 [5] does the source give for `CC1(C)CC2CC(C)(CN2S(=O)(=O)c2ccc(C(=O)Nc3ccc(Cl)c(S(=O)(=O)N4CCOCC4)c3)cc2)C1` (stereo unspecified) here?
Answer: 2.22 µM (active)

Question: What about the EC50 [6] of the same compound?
Answer: 21.6 µM (active)

Question: Which EC50 [5] does the source give for `CC(C)(C)c1cc(C(=O)NCCN2CCCC2)cc(C(C)(C)C)c1` here?
Answer: 4.49 µM (active)

Question: And the EC50 [6]?
Answer: > 30 µM (not active)

Question: Which results are given for `CCCOc1ccc(-c2nc(SCc3ccccc3)nc(O)c2C#N)cc1OC`?
Answer: EC50 [5]: 3.11 µM (active); EC50 [6]: 17.8 µM (active)

Question: Which results are given for `COc1ccc(CC(C)N2CCN(Cc3ccccc3)CC2)c(OC)c1` (stereo unspecified)?
Answer: EC50 [5]: 0.502 µM (active); EC50 [6]: > 30 µM (not active)

Question: What does the source list for `N#Cc1c(N)nc(Sc2ccc(Cl)cc2)c(C#N)c1-c1ccccc1Cl`?
Answer: EC50 [2]: 4.24 µM (active); EC50 [3]: 13.2 µM (active); EC50 [4]: > 150 µM (not active)

Question: What does the source list for `COCc1cc(CN2CCCC(C(=O)c3cccc(C(F)(F)F)c3)C2)ccc1OC` (stereo unspecified)?
Answer: EC50 [5]: 0.1 µM (active); EC50 [6]: > 60 µM (inconclusive)

Question: For `COc1ccc(NC(=O)CCN2CCN(C/C=C/c3ccccc3)CC2)cc1`, which EC50 [5] is on record?
Answer: 0.686 µM (active)

Question: And the EC50 [6]?
Answer: > 60 µM (not active)

Question: For `O=C(Nc1ccc(Cl)cc1)Nc1ccccc1Sc1ncc([N+](=O)[O-])s1`, which AC50 [1] is on record?
Answer: 4.23 µM (active)

Question: With `CCOC(=O)c1ccc(NC(=S)NN)cc1` as the compound, how does the EC50 [3] read?
Answer: > 150 µM (not active)

Question: With `CCOC(=O)c1ccc(NC(S)=NN)cc1` as the compound, how does the EC50 [2] read?
Answer: 9.57 µM (active)

Question: What about the EC50 [4] of the same compound?
Answer: > 150 µM (not active)

Question: For `Oc1cccc(NC(=S)N=Nc2c(O)[nH]c3ccc(Br)cc23)c1`, which EC50 [2] is on record?
Answer: 1.22 µM (active)

Question: And the EC50 [4]?
Answer: 4.54 µM (active)

Question: Which EC50 [5] does the source give for `O=C(c1cc([N+](=O)[O-])cc([N+](=O)[O-])c1)N1CCN(Cc2ccc3c(c2)OCO3)CC1` here?
Answer: 0.306 µM (active)

Question: What about the EC50 [6] of the same compound?
Answer: > 60 µM (not active)

Question: With `CCc1ccc(OCCCCN(C)Cc2ccccc2)cc1` as the compound, how does the EC50 [5] read?
Answer: 0.213 µM (active)

Question: And the EC50 [6]?
Answer: > 60 µM (not active)

Question: With `Cc1ccc(-c2cc(C(F)F)n3ncc(C(=O)N4CCCCC4c4cccnc4)c3n2)cc1` (stereo unspecified) as the compound, how does the EC50 [5] read?
Answer: 0.708 µM (active)

Question: What about the EC50 [6] of the same compound?
Answer: > 60 µM (inconclusive)

Question: Which EC50 [2] does the source give for `Cc1cc(N2CCN(c3ccccc3Cl)CC2)n2cc(-c3ccccc3)nc2n1` here?
Answer: 11.5 µM (active)

Question: What about the EC50 [3] of the same compound?
Answer: > 150 µM (not active)

Question: What about the EC50 [4] of the same compound?
Answer: 12 µM (active)

Question: With `CN1CCN(CC(=O)C23CC4CC(CC(C4)C2)C3)CC1` as the compound, how does the EC50 [5] read?
Answer: 0.225 µM (active)

Question: And the EC50 [6]?
Answer: > 30 µM (not active)

Question: Which results are given for `Fc1ccccc1C1c2[nH]c3ccccc3c2CCN1Cc1cccn1-c1ncccn1` (stereo unspecified)?
Answer: EC50 [5]: 1.07 µM (active); EC50 [6]: > 60 µM (not active)

Question: Which AC50 [1] does the source give for `C=CCn1c(=O)c(C(=O)NCCc2ccccc2)c(O)c2ccccc21` here?
Answer: 5.39 µM (active)

Question: Which AC50 [1] does the source give for `COc1cccc2sc3cc(C#CC4(O)CCCCC4)ccc3c(=O)c12` here?
Answer: 2.4 µM (active)

Question: With `COc1ccc2sc(-c3ccc(N(C)C)cc3)c(-c3ccc4cc[nH]c4c3)c2c1` as the compound, how does the AC50 [1] read?
Answer: 3.54 µM (active)

Question: With `C/C(=N\Nc1nc2ccccc2s1)c1ccc2c(c1)OCO2` as the compound, how does the EC50 [2] read?
Answer: 16.7 µM (active)

Question: And the EC50 [3]?
Answer: > 150 µM (not active)

Question: And the EC50 [4]?
Answer: 65.6 µM (active)

Question: Which results are given for `C=CCn1c(SC/C(O)=C(/C#N)C(C)=N)nc2sc(C)c(C)c2c1=O`?
Answer: EC50 [2]: 6.33 µM (active); EC50 [3]: > 150 µM (not active); EC50 [4]: 10 µM (active)

Question: With `Cc1cc(N/N=C/c2ccccc2O)nc(-c2ccccc2O)n1` as the compound, how does the EC50 [2] read?
Answer: 0.855 µM (active)

Question: And the EC50 [4]?
Answer: 2.9 µM (active)

Question: Which EC50 [5] does the source give for `O=C(N/N=C\c1ccc(F)cc1)c1ccc(Cn2cc(Br)c([N+](=O)[O-])n2)o1` here?
Answer: 0.761 µM (active)

Question: And the EC50 [6]?
Answer: > 60 µM (not active)
